Measured values published in patent publication EP4810500A1, “IMIDAZOL-2-ONE DERIVATIVE AND USE THEREOF IN MEDICINE” (Haisco Pharmaceutical Group Co., Ltd., priority 2023, dated 2025).
Read-outs that look alike come from different tables or passages of the source.

Legend:
[1] = Mouse pharmacokinetic assay; assay type: in vivo, male C57 mice; conditions: plasma, mice; for bioavailability: intragastric administration 10 mg/kg (intravenous 2.5 mg/kg); for AUC(0-t): intragastric administration 10 mg/kg
Experimental: Experimental animals: male C57 mice, 22-25 g, 6 mice/compound.
Experimental design: on the day of the experiment, C57 mice were randomly grouped according to body weight. The animals were fasted with water available for 12 h to 14 h one day before the administration, and were fed 4 h after the administration. Table 2. Administration information
Before and after the administration, 0.06 mL of blood was taken from the orbits under isoflurane anaesthesia and placed in an EDTAK2 centrifuge tube. The blood was centrifuged at 5000 rpm at 4°C for 10 min, and the plasma was collected. The blood collection time points for the intravenous administration group and intragastric administration group were 0, 5 min, 15 min, 30 min, 1 h, 2 h, 4 h, 7 h and 24 h. Before analysis and detection, all samples were stored at -80°C, and the samples were quantitatively analysed by LC-MS/MS. Table 2-1 Pharmacokinetic results of test compounds in mice

GLP-1R [2] = molecular target: T1, GLP-1R (Homo sapiens, UniProt P43220); experiment: In vitro activity assay (cAMP HTRF, HEK293-CRE-luc-GLP-1R cells); assay type: cell-based; parameters: expressed in transfected cells; host or cells: HEK293 (HEK293-CRE-luc-GLP-1R); conditions: cAMP HTRF 665 nm/620 nm, 1 h incubation
Experimental: HEK293-CRE-luc-GLP-1R cells were seeded into a 384-well cell culture plate (Greiner #781946) at a certain cell density (5 µL/well). 5 µl/well of 2× working solution was added to the 384-well microplate. The microplate was sealed with parafilm and incubated in a 37°C 5% CO2 incubator (Thermo) for 1 h. Subsequently, the detection was performed using the cAMP-GS HIRANGE KIT (PerkinElmer, 62AM6PEB), and detection reagents were prepared according to the kit instruction manual. After the incubation, the detection reagents were added to the 384-well microplate, and the microplate was incubated for 1 h at room temperature in the dark. HTRF signals at 665 nm and 620 nm were then measured using a multimode microplate reader. Data were exported from the microplate reader in Excel format. GraphPad Prism was opened. The logarithm of the sample concentration was calculated. Using the logarithm of concentration as the x-axis and the 665 nm/620 nm ratio as the y-axis, four-parameter logistic fitting was performed to obtain the EC50 value of the curve. Table 1: EC50 of compounds against GLP-1

CYP1A2 = molecular target: T2, CYP1A2 (Homo sapiens, UniProt P05177); experiment: CYP450 enzyme activity inhibition assay (human liver microsomes); assay type: in vitro ADME
T2 construct: from tissue; host or cells: human liver microsomes
T2 sequence (P05177 1-516): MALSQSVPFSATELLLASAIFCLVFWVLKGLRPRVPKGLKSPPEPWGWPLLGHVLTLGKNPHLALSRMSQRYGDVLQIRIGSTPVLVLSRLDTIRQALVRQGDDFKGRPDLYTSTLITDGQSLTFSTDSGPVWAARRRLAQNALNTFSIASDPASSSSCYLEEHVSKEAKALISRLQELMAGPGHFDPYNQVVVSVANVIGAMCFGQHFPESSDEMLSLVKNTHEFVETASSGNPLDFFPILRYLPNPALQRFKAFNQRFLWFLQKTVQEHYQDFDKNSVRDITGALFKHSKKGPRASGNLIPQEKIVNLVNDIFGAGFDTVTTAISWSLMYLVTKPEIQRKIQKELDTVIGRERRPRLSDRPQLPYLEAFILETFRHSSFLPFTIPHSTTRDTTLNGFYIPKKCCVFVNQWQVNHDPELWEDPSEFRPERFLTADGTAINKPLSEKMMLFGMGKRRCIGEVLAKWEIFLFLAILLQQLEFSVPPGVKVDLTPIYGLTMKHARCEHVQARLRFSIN
Experimental: (§1) The purpose of this study was to evaluate the effects of the test compounds on the activities of five isoenzymes (CYP1A2, CYP2C9, CYP2C19, CYP2D6, and CYP3A4) of human liver microsomal cytochrome P450 (CYP) using an in vitro testing system. The specific probe substrates of CYP450 isoenzymes were incubated with human liver microsomes and test compounds of different concentrations, and reduced nicotinamide adenine dinucleotide phosphate (NADPH) was added to initiate the reaction. After the completion of the reaction, the sample was treated and liquid chromatography-tandem mass spectrometry (LC-MS/MS) was used to quantitatively detect metabolites produced by specific substrates. Changes in CYP enzyme activity were determined, and IC50 value was calculated to evaluate the inhibitory potential of the test compound on each CYP enzyme subtype.

CYP2C19 = molecular target: T3, CYP2C19 (Homo sapiens, UniProt P33261); experiment: as above; assay type: in vitro ADME
T3 construct: from tissue; host or cells: human liver microsomes
Experimental: as §1

CYP2C9 = molecular target: T4, CYP2C9 (Homo sapiens, UniProt P11712); experiment: as above; assay type: in vitro ADME
T4 construct: from tissue; host or cells: human liver microsomes
Experimental: as §1

CYP2D6 = molecular target: T5, CYP2D6 (Homo sapiens, UniProt P10635); experiment: as above; assay type: in vitro ADME
T5 construct: from tissue; host or cells: human liver microsomes
Experimental: as §1

CYP3A4 = molecular target: T6, CYP3A4 (Homo sapiens, UniProt P08684); experiment: as above; assay type: in vitro ADME
T6 construct: from tissue; host or cells: human liver microsomes
Experimental: as §1

OATP1B1 = molecular target: T7, OATP1B1 (Homo sapiens, UniProt Q9Y6L6); experiment: SLC transporter inhibition assay (HEK293-OATP1B1 cells); assay type: in vitro ADME; conditions: test substance 0-30 µM, read-out: IC50 against OATP1B1
T7 construct: expressed in transfected cells; host or cells: HEK293
T7 sequence (Q9Y6L6 1-691): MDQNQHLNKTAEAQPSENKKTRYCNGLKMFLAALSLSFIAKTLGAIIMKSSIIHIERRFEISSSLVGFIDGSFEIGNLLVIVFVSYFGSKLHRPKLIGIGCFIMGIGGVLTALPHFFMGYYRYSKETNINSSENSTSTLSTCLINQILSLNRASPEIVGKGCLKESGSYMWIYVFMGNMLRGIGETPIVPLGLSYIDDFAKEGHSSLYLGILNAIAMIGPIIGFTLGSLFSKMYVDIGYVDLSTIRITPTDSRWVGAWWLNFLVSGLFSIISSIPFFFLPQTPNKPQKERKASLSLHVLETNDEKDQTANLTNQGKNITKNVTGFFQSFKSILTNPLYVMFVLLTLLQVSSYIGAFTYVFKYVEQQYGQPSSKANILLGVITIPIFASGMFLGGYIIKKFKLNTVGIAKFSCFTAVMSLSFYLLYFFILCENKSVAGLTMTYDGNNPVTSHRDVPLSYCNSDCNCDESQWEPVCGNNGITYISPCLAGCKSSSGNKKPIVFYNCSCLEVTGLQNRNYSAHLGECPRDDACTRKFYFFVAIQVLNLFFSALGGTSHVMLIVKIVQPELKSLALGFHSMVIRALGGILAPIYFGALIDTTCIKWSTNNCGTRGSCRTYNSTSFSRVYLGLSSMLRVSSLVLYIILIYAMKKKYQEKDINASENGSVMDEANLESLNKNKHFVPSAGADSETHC
Experimental: (§2) The objective of this study was to evaluate the inhibitory effects of the test substance on the activities of the transporters OATP1B1 and OATP1B3.
(§3) HEK293-OATP1B1 and OATP1B3 cells were incubated with and without the test substance (0-30 µM) for the corresponding time. Samples were then collected, and the substrate content in the samples was detected by liquid chromatography-tandem mass spectrometry (LC-MS/MS). By calculating the transport activity of the transporter with and without the test substance, the percentage of transporter activity of the transporter-expressing cells at different administration concentrations of the test substance (%VC (Vehicle Control, solvent control), the percentage of transport activity of the transporter with and without the test substance) was obtained, and the half-maximal inhibitory concentration (IC50) was calculated from this.

OATP1B3 = OATP1B3 (Homo sapiens, UniProt Q9NPD5); experiment: in vitro; conditions: oatp1b3 cells
Experimental: as §2, §3

[3] = Monkey pharmacokinetic assay; assay type: in vivo, male cynomolgus monkeys; conditions: cynomolgus monkey, monkeys; for bioavailability: intragastric administration 5 mg/kg (intravenous 1 mg/kg); for AUC(0-t): intragastric administration 5 mg/kg
Experimental: Experimental animals: male cynomolgus monkeys, 3-5 kg, 3-6 years old, 5 monkeys/compound, purchased from Hainan New Source Biotechnology Co., Ltd.
Experimental method: On the day of the experiment, five monkeys were randomly grouped according to body weight, with two in the intravenous administration group and three in the intragastric administration group. The animals were fasted with water available for 14 h to 18 h one day before the administration, and were fed 4 h after the administration. Table 3. Administration information

GLP-1R [4] = molecular target: T1, GLP-1R; experiment: Oral glucose tolerance test (OGTT); assay type: in vivo, male C57BL/6-G1p1rem2 (hGLP1R) Smoc mice; parameters: from tissue; host or cells: whole animal: male C57BL/6-Glp1r em2(hGLP1R) Smoc knock-in mice; conditions: 3 mg/kg, orally administered; from blood glucose AUC0-2 h after glucose load
Experimental: OGTT experiment was performed in male C57BL/6-G1p1rem2 (hGLP1R) Smoc mice to evaluate the hypoglycaemic effect of GLP-1 receptor agonists. The animals were fasted for more than 16 hours and randomly grouped. Tail tip blood was collected and basal fasting blood glucose (FBG) was measured using a blood glucose meter. Mice with FBG in the range of 3.5-6.5 mmol/L were selected and orally administered, and the control group was administered the vehicle. 15 min after administration, each group of animals was intragastrically administered with 25% glucose solution. Blood glucose levels were measured in tail tip blood collected 15 min, 30 min, 45 min, 1 h, and 2 h after glucose administration. 0-2 h blood glucose AUC0-2 h was calculated using the Graphpad Prism software, and the inhibition rate was further calculated. [formula]

T3 sequence (P33261 whole entry): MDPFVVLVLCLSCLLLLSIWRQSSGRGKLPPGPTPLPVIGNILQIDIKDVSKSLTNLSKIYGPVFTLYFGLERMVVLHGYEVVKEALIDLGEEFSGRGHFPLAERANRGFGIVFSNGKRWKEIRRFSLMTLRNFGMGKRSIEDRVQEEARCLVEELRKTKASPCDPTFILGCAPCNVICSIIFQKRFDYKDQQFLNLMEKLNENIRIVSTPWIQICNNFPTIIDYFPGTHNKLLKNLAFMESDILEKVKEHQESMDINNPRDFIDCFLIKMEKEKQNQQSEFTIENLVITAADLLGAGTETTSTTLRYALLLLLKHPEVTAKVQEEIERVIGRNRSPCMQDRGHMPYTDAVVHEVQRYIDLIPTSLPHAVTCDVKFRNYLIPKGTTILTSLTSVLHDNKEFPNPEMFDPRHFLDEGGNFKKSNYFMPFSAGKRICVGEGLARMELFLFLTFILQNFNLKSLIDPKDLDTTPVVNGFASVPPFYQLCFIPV
T4 sequence (P11712 whole entry): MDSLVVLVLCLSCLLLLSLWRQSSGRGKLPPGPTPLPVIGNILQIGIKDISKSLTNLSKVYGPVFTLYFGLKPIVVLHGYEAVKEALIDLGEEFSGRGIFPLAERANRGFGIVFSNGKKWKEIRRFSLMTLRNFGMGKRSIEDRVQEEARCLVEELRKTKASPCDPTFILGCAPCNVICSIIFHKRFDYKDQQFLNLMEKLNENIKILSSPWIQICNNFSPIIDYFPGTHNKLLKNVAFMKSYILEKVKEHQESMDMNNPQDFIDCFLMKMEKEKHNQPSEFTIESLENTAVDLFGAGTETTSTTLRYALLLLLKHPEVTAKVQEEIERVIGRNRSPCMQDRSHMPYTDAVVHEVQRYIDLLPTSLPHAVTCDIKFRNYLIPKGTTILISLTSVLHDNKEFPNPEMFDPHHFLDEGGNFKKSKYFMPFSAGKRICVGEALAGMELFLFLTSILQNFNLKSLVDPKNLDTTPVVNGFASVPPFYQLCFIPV
T1 sequence (P43220 24-463): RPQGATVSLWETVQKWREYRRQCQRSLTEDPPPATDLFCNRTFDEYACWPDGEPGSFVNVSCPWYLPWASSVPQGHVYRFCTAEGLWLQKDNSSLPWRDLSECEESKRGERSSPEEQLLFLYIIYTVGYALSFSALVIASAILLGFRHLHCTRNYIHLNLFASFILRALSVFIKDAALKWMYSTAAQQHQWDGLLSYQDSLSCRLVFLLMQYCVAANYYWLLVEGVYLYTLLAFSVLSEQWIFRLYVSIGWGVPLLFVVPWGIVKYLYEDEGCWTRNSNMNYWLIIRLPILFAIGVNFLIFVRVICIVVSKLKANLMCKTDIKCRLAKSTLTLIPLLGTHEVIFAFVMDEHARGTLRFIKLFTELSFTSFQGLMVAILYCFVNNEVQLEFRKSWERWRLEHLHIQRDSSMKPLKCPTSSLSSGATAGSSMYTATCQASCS
T6 sequence (P08684 whole entry): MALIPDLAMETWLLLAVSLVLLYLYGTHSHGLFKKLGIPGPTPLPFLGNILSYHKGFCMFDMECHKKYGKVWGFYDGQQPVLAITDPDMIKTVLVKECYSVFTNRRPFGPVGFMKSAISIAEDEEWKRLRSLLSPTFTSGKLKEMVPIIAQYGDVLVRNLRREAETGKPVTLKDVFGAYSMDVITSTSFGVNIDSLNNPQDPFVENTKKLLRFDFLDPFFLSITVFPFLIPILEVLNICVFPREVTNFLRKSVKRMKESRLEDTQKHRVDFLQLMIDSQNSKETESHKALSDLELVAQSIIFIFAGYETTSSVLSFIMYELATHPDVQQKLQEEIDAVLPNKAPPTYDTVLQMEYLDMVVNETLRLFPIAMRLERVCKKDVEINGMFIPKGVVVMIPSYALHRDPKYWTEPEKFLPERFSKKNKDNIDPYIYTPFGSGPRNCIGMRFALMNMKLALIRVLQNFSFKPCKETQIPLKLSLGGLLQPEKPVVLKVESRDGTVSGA
T5 sequence (P10635 whole entry): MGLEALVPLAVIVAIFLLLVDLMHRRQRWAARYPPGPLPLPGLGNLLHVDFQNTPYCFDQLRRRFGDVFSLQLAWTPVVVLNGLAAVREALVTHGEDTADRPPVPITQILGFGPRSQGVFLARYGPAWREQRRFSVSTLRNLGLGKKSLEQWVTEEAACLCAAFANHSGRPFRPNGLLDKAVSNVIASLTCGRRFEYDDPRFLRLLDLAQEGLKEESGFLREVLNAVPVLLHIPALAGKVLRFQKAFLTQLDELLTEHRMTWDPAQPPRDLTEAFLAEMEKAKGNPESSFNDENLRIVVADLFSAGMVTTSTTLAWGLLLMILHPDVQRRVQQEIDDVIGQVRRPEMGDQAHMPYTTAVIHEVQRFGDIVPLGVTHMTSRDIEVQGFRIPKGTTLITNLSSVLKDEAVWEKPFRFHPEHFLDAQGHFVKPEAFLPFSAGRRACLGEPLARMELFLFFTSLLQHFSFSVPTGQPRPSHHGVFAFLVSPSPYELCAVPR
Sequence of OATP1B3 (Q9NPD5 whole entry, species assumed): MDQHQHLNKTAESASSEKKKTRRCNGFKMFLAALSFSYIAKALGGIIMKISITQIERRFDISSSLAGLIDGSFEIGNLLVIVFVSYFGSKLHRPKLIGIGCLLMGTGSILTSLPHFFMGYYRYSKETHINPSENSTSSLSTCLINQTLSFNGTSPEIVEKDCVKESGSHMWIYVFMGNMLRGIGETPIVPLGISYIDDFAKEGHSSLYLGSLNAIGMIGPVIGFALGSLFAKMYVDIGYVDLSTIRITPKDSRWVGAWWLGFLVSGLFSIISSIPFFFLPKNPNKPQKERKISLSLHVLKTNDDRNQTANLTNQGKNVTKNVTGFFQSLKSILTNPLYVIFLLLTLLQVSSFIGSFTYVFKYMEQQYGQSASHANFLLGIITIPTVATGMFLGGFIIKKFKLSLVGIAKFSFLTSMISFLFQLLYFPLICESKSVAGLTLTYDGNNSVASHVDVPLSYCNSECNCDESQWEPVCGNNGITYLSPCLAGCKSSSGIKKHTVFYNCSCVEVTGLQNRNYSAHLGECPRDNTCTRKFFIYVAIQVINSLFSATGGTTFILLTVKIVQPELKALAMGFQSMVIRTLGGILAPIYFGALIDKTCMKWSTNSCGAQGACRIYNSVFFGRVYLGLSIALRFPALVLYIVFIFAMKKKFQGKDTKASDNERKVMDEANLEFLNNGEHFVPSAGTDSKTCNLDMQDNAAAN

| Compound | bioavailability ([1]; mouse, po) | AUC(0-t) ([1]; mouse, po) | EC50 (GLP-1R [2]) | IC50 (CYP1A2; human, microsomes) | IC50 (CYP2C19; human, microsomes) | IC50 (CYP2C9; human, microsomes) | IC50 (CYP2D6; human, microsomes) | IC50 (CYP3A4; human, microsomes) | blood glucose inhibition rate (GLP-1R [4]) | further results |
| --- | --- | --- | --- | --- | --- | --- | --- | --- | --- | --- |
| [2H]C([2H])([2H])N1C(=O)C2(CCOCC2)c2ccc(-n3ccn(-c4c5c(nn4-c4ccc(F)c(C(=C)F)c4)CCN(C(=O)c4cc6cc([C@H]7CCOC(C)(C)C7)ccc6n4[C@@]4(c6noc(=O)[nH]6)C[C@@H]4C)[C@H]5C)c3=O)c(F)c21 [Compound 55] | 25.1% | 8670 ng·h/mL | < 0.001 µM |  |  |  |  |  |  |  |
| C[C@H]1c2c(nn(-c3ccc(F)c(C4(F)CC4)c3)c2-n2ccn(-c3ccc4c(c3)N(C)C(=O)C43CCOCC3)c2=O)CCN1C(=O)c1cc2cc([C@H]3CCOC(C)(C)C3)ccc2n1[C@@]1(c2noc(=O)[nH]2)C[C@@H]1C [Compound 6] |  |  | < 0.001 µM | > 30 µM | > 30 µM | > 30 µM | > 30 µM | > 30 µM |  | IC50 (OATP1B1): > 2 µM; IC50 (OATP1B3): > 1 µM |
| Cc1cc(-n2nc3c(c2-n2ccn(-c4ccc5c(cnn5C)c4F)c2=O)[C@H](C)N(C(=O)c2cc4cc([C@H]5CCOC(C)(C)C5)ccc4n2[C@@]2(c4noc(=O)[nH]4)C[C@@H]2C)CC3)cc(C)c1F [Orforglipron, reference compound] |  |  |  |  |  |  |  |  | -9.8% | bioavailability ([1]; male, C57, mouse, oral): 7.93%; AUC(0-t) ([1]; male, C57, mouse, po): 3260 ng·h/mL; bioavailability ([3]; male, plasma, oral): 1.93%; AUC(0-t) ([3]; male, po, plasma): 584 ng·h/mL; IC50 (CYP1A2; human liver microsomes, NADPH, read-out: IC50 (µM) CYP1A2): > 30 µM; IC50 (CYP2C19; human liver microsomes, NADPH, read-out: IC50 (µM) CYP2C19): > 30 µM; IC50 (CYP2C9; human liver microsomes, NADPH, read-out: IC50 (µM) CYP2C9): 0.905 µM; IC50 (CYP2D6; human liver microsomes, NADPH, read-out: IC50 (µM) CYP2D6): > 30 µM; IC50 (CYP3A4; human liver microsomes, NADPH, read-out: IC50 (µM) CYP3A4): > 30 µM |
| Cc1cc(-n2nc3c(c2-n2ccn(-c4ccc5c(c4)N(C)C(=O)C54CCOCC4)c2=O)[C@H](C)N(C(=O)c2cc4cc(C5CCOC(C)(C)C5)sc4n2C2(c4noc(=O)[nH]4)C[C@@H]2C)CC3)cc(C)c1F (single isomer, unassigned) [Compound 9] |  |  | < 0.001 µM | > 30 µM | > 30 µM | 3.31 µM | > 30 µM | > 30 µM |  |  |
| C=C(F)c1cc(-n2nc3c(c2-n2ccn(-c4ccc5c(c4F)N(C)C(=O)C54CCOCC4)c2=O)[C@H](C)N(C(=O)c2cc4cc([C@H]5CCOC(C)(C)C5)ccc4n2[C@@]2(c4noc(=O)[nH]4)C[C@@H]2C)CC3)ccc1F [Compound 54] | 33.8% | 12100 ng·h/mL | < 0.001 µM |  |  |  |  |  |  |  |
| Cc1cc(-n2nc3c(c2-n2ccn(-c4ccc5c(c4)N(C)C(=O)C54CCOCC4)c2=O)[C@H](C)N(C(=O)c2cc4cc([C@H]5CCOC(C)(C)C5)ccc4n2[C@@]2(c4noc(=O)[nH]4)C[C@@H]2C)CC3)cc(C)c1F [Compound 2] | 70.3% | 23200 ng·h/mL | < 0.001 µM |  |  |  |  |  | -25.5% | bioavailability ([3]; in vivo, po): 32.6%; AUC(0-t) ([3]; po, plasma): 11600 ng·h/mL |
| [2H]C([2H])([2H])N1C(=O)C2(CCOCC2)c2ccc(-n3ccn(-c4c5c(nn4-c4cc(C)c(F)c(C)c4)CCN(C(=O)c4cc6cc([C@H]7CCOC(C)(C)C7)ccc6n4[C@@]4(c6noc(=O)[nH]6)C[C@@H]4C)[C@H]5C)c3=O)cc21 [Compound 3] |  |  | < 0.001 µM | > 30 µM | > 30 µM | > 30 µM | > 30 µM | > 30 µM | -37.1% |  |
